Patent publication US4857310A, “Triglyceride quaternary ammonium compounds, their preparation and use” (The Gillette Company, priority 1987, dated 1989)

Assay: absorption of moisturizing composition by the skin
Type: in vivo
Conditions: replacing 20% by weight of the avocado oil or apricot kernel oil in moisturizing compositions
Source text: The triglyceride quaternary ammonium compounds of formula I in which R is C16 -C20 alkyl are valuable additives to a range of cosmetic and toiletry compositions. They are particularly useful in moisturizing compositions containing natural triglycerides which are not easily absorbed by the skin. Examples of such natural triglycerides are avocado oil and apricot kernel oil which are the major natural triglyceride oil components of certain commercially available moisturizing lotions and creams.

Compound: CCCCCCCCCCCCCCCCCC[N+](C)(C)CC(=O)OC(CC=CCCCCCCCC(=O)OCC(COC(=O)CCCCCCCC=CCC(CCCCCC)OC(=O)C[N+](C)(C)CCCCCCCCCCCCCCCCCC)OC(=O)CCCCCCCC=CCC(CCCCCC)OC(=O)C[N+](C)(C)CCCCCCCCCCCCCCCCCC)CCCCCC (stereo not shown) [Example 1, propane-1,2,3-tri[octadec-9-en-12-(oxycarbonyl-N-methylene-N,N-dimethyl-N-octadecylammonium chloride)oate]]
- improvement in the absorption of the composition by the skin: significant improvement
